In patent publication US9359275B2, “Natural product antibiotics and analogs thereof” (Children's Medical Center Corporation, priority 2012, dated 2016):
In brackets after ≈: the same amount, converted by molar mass. Read-outs that look alike come from different tables or passages of the source.

Legend:
P. aeruginosa ATCC 27853 = assay: MIC, microdilution broth method in CAMHB; type: cell-based, Pseudomonas aeruginosa
E. coli ATCC 25922 = assay: MIC, microdilution broth method in CAMHB; type: cell-based, Escherichia coli
V. cholerae PW357 = assay: MIC, microdilution broth method in CAMHB; type: cell-based, Vibrio cholerae
[1] = tested on: M. tuberculosis H37Rv ATCC 27294; assay: MIC, microplate-based Alamar blue assay (MABA); type: cell-based, Mycobacterium tuberculosis
[2] = tested on: K. pneumoniae carbapenemase positive ATCC BAA-1705; assay: MIC, microdilution broth method in CAMHB; type: cell-based, Klebsiella pneumoniae
MRSA ATCC BAA-976 = assay: MIC, microdilution broth method in CAMHB; type: cell-based, Staphylococcus aureus
V. cholerae [3] = assay: Medium acidification (sugar fermentation) assay in pH-MMSuc, A615; details: 30° C.
Method: The assays were carried out at 30° C. in pH-MMSuc to monitor sugar fermentation by A615 (FIGS. 5A, 5B, and 5C) or in MMPyr to monitor bacterial growth by OD615 (D, E, and F).
The assays were carried out at 30° C. in pH-MMSuc to monitor sugar fermentation by A615.
A minimal medium (MM) supplemented with sucrose (0.5% wt/vol), thymol blue (0.006% wt/vol) and bromothymol blue (0.006% wt/vol) (pH-MM^Suc) was used for the HTS (Houot et al., J Bacteriol (2008) 190: 311-320).
Conditions were tested in duplicate in each experiment, and two experimental replicates were performed on separate days.

V. cholerae [4] = assay: Growth assay in MMPyr (OD615) and plating for CFU; details: with the assay described
Method: The assays were carried out at 30° C. in pH-MMSuc to monitor sugar fermentation by A615 (FIGS. 5A, 5B, and 5C) or in MMPyr to monitor bacterial growth by OD615 (D, E, and F). Bacteria were exposed to compound 1 (FIGS. 5A and 5D), compound 2 (FIGS. 5B and 5E) or compound 3 (FIGS. 5C and 5F) at concentrations ranging from 14 to 383 μM.
In secondary screens, MM was also supplemented with glucose (0.5% wt/vol), thymol blue (0.006% wt/vol), and bromothymol blue (0.006% wt/vol) (pH-MM^Glu') or pyruvate (0.5% wt/vol) (MM^Pyr).
Conditions were tested in duplicate in each experiment, and two experimental replicates were performed on separate days. […] To determine whether this represented bacteriostatic or bactericidal activity, dilutions of the cell suspensions were plated on LB agar after 20 hours of growth in MM^Pyr supplemented with compound 1 at a concentration of 383 μM.

[5] = Pseudomonas aeruginosa, ATCC27853, P. aeruginosa ATCC 27853, read-out: MIC
[6] = Escherichia coli, ATCC25922, E. coli ATCC 25922, read-out: MIC
[7] = Vibrio cholerae, V. cholerae PW357, read-out: MIC
[8] = Mycobacterium tuberculosis, M. tuberculosis H37Rv ATCC 27294, Alamar Blue Assay, ≧90% inhibition, read-out: MIC
[9] = Klebsiella pneumoniae, ATCCBAA1705, K. pneumoniae carbapenemase positive ATCC BAA-1705, read-out: MIC
[10] = Staphylococcus aureus, MRSA ATCC BAA-976, read-out: MIC

Compound | MIC (P. aeruginosa ATCC 27853; [5]) [µg/mL] | MIC (E. coli ATCC 25922; [6]) [µg/mL] | MIC (V. cholerae PW357; [7]) [µg/mL] | MIC [1, 8] [µg/mL] | MIC [2, 9] [µg/mL] | MIC (MRSA ATCC BAA-976; [10]) [µg/mL] | also measured
CC1(C)S[C@@H]2[C@H](NC(=O)[C@H](N)c3ccccc3)C(=O)N2[C@H]1C(=O)O [AMP, ampicillin] | > 80 | 2.5 (≈ 7.15 µM) | 2.5 (≈ 7.15 µM) | 0.25 (≈ 0.715 µM) | > 80 | > 80 | 
CCCc1c(O)ccc(O)c1CO [Compound 1, 2-(hydroxymethyl)-3-propyl hydroquinone] |  |  |  |  |  |  | MIC (P. aeruginosa ATCC 27853; Pseudomonas aeruginosa, ATCC27853): 80 µg/mL (≈ 439 µM); MIC (E. coli ATCC 25922; Escherichia coli, ATCC25922): 80 µg/mL (≈ 439 µM); MIC (V. cholerae PW357; Vibrio cholerae, PW357): 40 µg/mL (≈ 220 µM); concentration at which medium acidification was completely blocked (V. cholerae [3]): 261 µM; concentration at which medium acidification was inhibited (V. cholerae [3]): 134 µM; MIC ([1]; Mycobacterium tuberculosis): 25 µg/mL (≈ 137 µM); MIC ([2]; Klebsiella pneumoniae, ATCCBAA1705): > 80 µg/mL; MIC (MRSA ATCC BAA-976; Staphylococcus aureus): 10 µg/mL (≈ 54.9 µM)
CC1Cc2c(ccc(O)c2CO)O1 (centres unmarked) [Compound 2, 5-hydroxy-4-(hydroxymethyl)-2-methyl 2,3-dihydrobenzofuran] |  |  |  |  |  |  | antibacterial activity (in words) (V. cholerae [4]): demonstrated anti-bacterial activity
CCCC1=C(CO)C(=O)C=CC1=O [Compound 3, 2-(hydroxymethyl)-3-propyl benzoquinone] |  |  |  |  |  |  | antibacterial activity (in words) (V. cholerae [4]): little to no antibacterial activity
C[C@@H](O)[C@H]1C(=O)N2C(C(=O)O)=C(SCCN=CN)C[C@H]12 [IMI, imipenem] | 5 (≈ 16.7 µM) | 1.25 (≈ 4.18 µM) | 1.25 (≈ 4.18 µM) | 100 (≈ 334 µM) | > 80 | 1.25 (≈ 4.18 µM) | 
C[C@H]1COc2c(N3CCN(C)CC3)c(F)cc3c(=O)c(C(=O)O)cn1c23 [LEVO, levofloxacin] | 1.25 (≈ 3.46 µM) | 0.019 (≈ 0.0526 µM) | < 0.005 | 0.25 (≈ 0.692 µM) | > 80 | 0.312 (≈ 0.863 µM) | 
CC1(O)CCC(c2c(O)cc3c(c2O)C(=O)c2c(O)cc(O)cc2C3=O)CO1 (centres unmarked) [SC3-22-19] |  |  |  |  |  |  | sugar utilization (V. cholerae [3]): decreased sugar utilization
bactrim [TMP/SMX] |  |  |  |  |  |  | MIC (P. aeruginosa ATCC 27853): >16 µg/mL; MIC (E. coli ATCC 25922; E. coli ATCC 25922): 0.125 µg/mL; MIC (V. cholerae PW357; V. cholerae PW357): >16 µg/mL; MIC ([1]; M. tuberculosis H37Rv ATCC 27294, Alamar Blue Assay, ≧90% inhibition): 2 µg/mL; MIC ([2]; K. pneumoniae carbapenemase positive ATCC BAA-1705): >16 µg/mL; MIC (MRSA ATCC BAA-976; MRSA ATCC BAA-976): 0.062 µg/mL
